Assay results from paper PMC11436758, “Computer-aided drug design to generate a unique antibiotic family” (Nature Communications, 2024).
In brackets after ≈: the same amount, converted by molar mass.

Tests used:
Assay type in all cases: cell-based
S. aureus (MRSA) = assay: MIC, clinical and laboratory strains
Description: (§1) The medium employed for the assay was Mueller Hinton II Broth (MHB II; Becton-Dickinson, Sparks, MD, USA). Agar plates used for the organisms were trypticase soy agar plus 5% sheep blood (BD; Sparks, MD, USA). MIC assay plates were prepared using the CLSI broth microdilution procedure. Automated liquid handlers (Multidrop 384, Biomek 2000 and Biomek FX) were used to conduct serial dilutions and liquid transfers. A standardized inoculum of each organism was prepared per CLSI methods. Suspensions were prepared to equal a 0.5 McFarland standard, followed by a 1:20 dilution in test media. The inocula were dispensed into sterile reservoirs divided by length (Beckman Colter) and the Biomek 2000 was used to inoculate the plates. Daughter plates were placed on the Biomek 2000 work surface in reverse orientation so that inoculation took place from low to high drug concentration. The Biomek 2000 delivered 10 μL of the diluted suspension into each well. These inoculations yielded a final cell concentration in the daughter plates of ~5 × 10^5 colony-forming units/mL in each well. The wells of the daughter plates ultimately contained 185 μL of broth, 5 μL of drug solution, and 10 μL of bacterial inoculum. Plates were covered with a sterile lid on the top plate, placed in plastic bags, and incubated at 35 °C for ~18 h. The microplates were viewed from the bottom using a plate viewer and the MIC was read. The MIC was recorded as the lowest concentration of drug that inhibited visible growth of the organism.

S. aureus (MSSA) = assay: MIC, clinical and laboratory strains
Description: as §1

S. aureus (VISA) = assay: MIC, clinical and laboratory strains
Description: as §1

[1] = test system: 102 ATCC strains and clinical isolates of Staphylococcus, Streptomyces, and Enterococcus; assay: MIC panel summary over all strains; conditions: of 102 strains
Description: We also sought to determine if DNM0547 was bacteriostatic or bactericidal. Time kill experiments were carried out using increasing doses of DNM0547 against two different strains of MRSA.
as §1

CN[C@H](CC(C)C)C(=O)N[C@H]1C(=O)N[C@@H](CC(N)=O)C(=O)N[C@H]2C(=O)N[C@H]3C(=O)N[C@H](C(=O)N[C@H](C(=O)O)c4cc(O)cc(O)c4-c4cc3ccc4O)[C@H](O)c3ccc(c(Cl)c3)Oc3cc2cc(c3O[C@@H]2O[C@H](CO)[C@@H](O)[C@H](O)[C@H]2O[C@H]2C[C@](C)(N)[C@H](O)[C@H](C)O2)Oc2ccc(cc2Cl)[C@H]1O [vancomycin]
MIC (S. aureus (MRSA); S. aureus (MRSA) 2167): 0.5 µg/mL (≈ 0.345 µM)
MIC (S. aureus (MRSA); S. aureus (MRSA) 2168): 0.5 µg/mL (≈ 0.345 µM)
MIC (S. aureus (MRSA); S. aureus (MRSA) 2169): 1 µg/mL (≈ 0.69 µM)
MIC (S. aureus (MRSA); S. aureus (MRSA) 2170): 0.5 µg/mL (≈ 0.345 µM)
MIC (S. aureus (MRSA); S. aureus (MRSA) 2171): 0.5 µg/mL (≈ 0.345 µM)
MIC (S. aureus (MRSA); S. aureus (MRSA) 2293): 0.5 µg/mL (≈ 0.345 µM)
MIC (S. aureus (MRSA); S. aureus (MRSA) 2294): 0.5 µg/mL (≈ 0.345 µM)
MIC (S. aureus (MRSA); S. aureus (MRSA) 2295): 0.5 µg/mL (≈ 0.345 µM)
MIC (S. aureus (MRSA); S. aureus (MRSA) 2296): 0.5 µg/mL (≈ 0.345 µM)
MIC (S. aureus (MRSA); S. aureus (MRSA) 2297): 1 µg/mL (≈ 0.69 µM)
MIC (S. aureus (MRSA); S. aureus (MRSA) 3880): 0.5 µg/mL (≈ 0.345 µM)
MIC (S. aureus (MRSA); S. aureus (MRSA) 5373): 0.5 µg/mL (≈ 0.345 µM)
MIC (S. aureus (MRSA); S. aureus (MRSA) 5666): 0.5 µg/mL (≈ 0.345 µM)
MIC (S. aureus (MRSA); S. aureus (MRSA) 5702): 0.5 µg/mL (≈ 0.345 µM)
MIC (S. aureus (MRSA); S. aureus (MRSA) 5999): 0.5 µg/mL (≈ 0.345 µM)
MIC (S. aureus (MRSA); S. aureus (MRSA) 6165): 1 µg/mL (≈ 0.69 µM)
MIC (S. aureus (MRSA); S. aureus (MRSA) 6169): 0.5 µg/mL (≈ 0.345 µM)
MIC (S. aureus (MRSA); S. aureus (MRSA) 6174): 0.5 µg/mL (≈ 0.345 µM)
MIC (S. aureus (MRSA); S. aureus (MRSA) 6311): 1 µg/mL (≈ 0.69 µM)
MIC (S. aureus (MRSA); S. aureus (MRSA) 6312): 0.5 µg/mL (≈ 0.345 µM)
MIC (S. aureus (MRSA); S. aureus (MRSA) 6313): 0.5 µg/mL (≈ 0.345 µM)
MIC (S. aureus (MRSA); S. aureus (MRSA) 6315): 1 µg/mL (≈ 0.69 µM)
MIC (S. aureus (MRSA); S. aureus (MRSA) 6320): 1 µg/mL (≈ 0.69 µM)
MIC (S. aureus (MRSA); S. aureus (MRSA) 6498): 0.5 µg/mL (≈ 0.345 µM)
MIC (S. aureus (MRSA); S. aureus (MRSA) 6501): 0.5 µg/mL (≈ 0.345 µM)
MIC (S. aureus (MRSA); S. aureus (MRSA) 6505): 0.5 µg/mL (≈ 0.345 µM)
MIC (S. aureus (MRSA); S. aureus (MRSA) 6506): 0.5 µg/mL (≈ 0.345 µM)
MIC (S. aureus (MRSA); S. aureus (MRSA) NRS382/2119): 1 µg/mL (≈ 0.69 µM)
MIC (S. aureus (MRSA); S. aureus (MRSA) NRS383/2120): 0.5 µg/mL (≈ 0.345 µM)
MIC (S. aureus (MRSA); S. aureus (MRSA) NRS384/2011): 0.5 µg/mL (≈ 0.345 µM)
MIC (S. aureus (MSSA); S. aureus (MSSA) 2127): 1 µg/mL (≈ 0.69 µM)
MIC (S. aureus (MSSA); S. aureus (MSSA) 6167): 0.5 µg/mL (≈ 0.345 µM)
MIC (S. aureus (MSSA); S. aureus (MSSA) 6168): 0.5 µg/mL (≈ 0.345 µM)
MIC (S. aureus (MSSA); S. aureus (MSSA) 6170): 0.5 µg/mL (≈ 0.345 µM)
MIC (S. aureus (MSSA); S. aureus (MSSA) 6316): 1 µg/mL (≈ 0.69 µM)
MIC (S. aureus (MSSA); S. aureus (MSSA) 6317): 0.5 µg/mL (≈ 0.345 µM)
MIC (S. aureus (MSSA); S. aureus (MSSA) 6318): 0.5 µg/mL (≈ 0.345 µM)
MIC (S. aureus (MSSA); S. aureus (MSSA) 6499): 0.5 µg/mL (≈ 0.345 µM)
MIC (S. aureus (MSSA); S. aureus (MSSA) 6500): 0.5 µg/mL (≈ 0.345 µM)
MIC (S. aureus (MSSA); S. aureus (MSSA) 6502): 0.5 µg/mL (≈ 0.345 µM)
MIC (S. aureus (VISA); S. aureus (VISA) 1724): 4 µg/mL (≈ 2.76 µM)
MIC (S. aureus (VISA); S. aureus (VISA) 2012): 8 µg/mL (≈ 5.52 µM)
MIC (S. aureus (VISA); S. aureus (VISA) 2013): 4 µg/mL (≈ 2.76 µM)
MIC (S. aureus (VISA); S. aureus (VISA) 2014): 4 µg/mL (≈ 2.76 µM)
MIC (S. aureus (VISA); S. aureus (VISA) 2015): 4 µg/mL (≈ 2.76 µM)
MIC (S. aureus (VISA); S. aureus (VISA) 2016): 4 µg/mL (≈ 2.76 µM)
MIC (S. aureus (VISA); S. aureus (VISA) 2017): 8 µg/mL (≈ 5.52 µM)
MIC (S. aureus (VISA); S. aureus (VISA) 2018): 4 µg/mL (≈ 2.76 µM)
MIC (S. aureus (VISA); S. aureus (VISA) 2019): 4 µg/mL (≈ 2.76 µM)
MIC (S. aureus (VISA); S. aureus (VISA) 2123): 8 µg/mL (≈ 5.52 µM)
MIC (S. aureus (VISA); S. aureus (VISA) NRS1/1723): 8 µg/mL (≈ 5.52 µM)
number of strains tested with MIC not ≤ 2 μg/mL [1]: 37
